Legend:
Assay type in all cases: physicochemical
[1] = Dissolution (drug release) in 0.05 M phosphate buffer pH 6.8
[2] = Intrinsic dissolution rate (IDR) in 0.05M phosphate buffer pH 6.8
[3] = Pharmaceutical loading (relative percentage of diclofenac by mass)
Text: It has been appreciated that the pharmaceutical loading in the TCPs may be less than that of a commercially available pharmaceutical sodium salt due to the mass of the organic linkers. Provided below is Table I showing a summary for the relative percentages in some of specific diclofenac TCPs. For example, the percent of diclofenac in sodium diclofenac is 93%, whereas the TCPs had loading ranging from 42-70%. The percentage of metal within the TCPs by mass ranged from 2.6-7.9% and the percent of linker by mass ranged from 22-41%. The TCP with EtOH in the name were synthesized in EtOH, all others were synthesized in MeOH. However, it is not strictly required that TCPs be prepared in MeOH and TCPs may be prepared in EtOH instead, or other solvents such as but not limited to: water, acetonitrile, dimethyl sulfoxide, nitromethane, isopropyl alcohol, dimethylformamide or a mixture thereof.

O=C(O)Cc1ccccc1Nc1c(Cl)cccc1Cl [sodium diclofenac]
diclofenac released ([1]; after 1 h): 100%
intrinsic dissolution rate (IDR) [2]: 1161±0.216 μg cm^−2 min^−1
percent of diclofenac (loading) [3]: 93%

CC(C)Cc1ccc(C(C)C(=O)O)cc1.[Na] (stereo not shown) [sodium ibuprofen]
ibuprofen released ([1]; after 5 min): 100%

From patent US20240342291A1, “Therapeutic Coordination Polymers Containing Pharmaceuticals for Drug Release Applications” (UNIVERSITY OF WINDSOR, priority 2021, published 2024)
